Results: ChEMBL document CHEMBL5576147, “Development of Brain Penetrant Pyridazine Pantothenate Kinase Activators” (J Med Chem, 2024)

Key:
[1] = in vitro; set-up: dose or concentration left out as unconfirmed; details: mouse, liver microsomes
[2] = in vitro; set-up: dose or concentration left out as unconfirmed; details: human, liver microsomes

- CLint scaled at 4 h [1]: 408 mL/min/kg
- CLint scaled at 4 h [2]: 175 mL/min/kg
SMILES: CC(C)c1ccc(CC(=O)N2CCN(c3ccc(C#N)nn3)CC2)cc1
